Assay results from PubChem BioAssay AID330 (DTP/NCI, 2004).
Several values for one entry are separate records, joined by “and”; a condition that tells them apart may be missing. Equal values may be shown once. Inconclusive results and toxic doses are left out. The calls were made as follows: active = survival T/C of 150% or more; inactive = T/C below 125% in these data.

System: P388 leukemia ip, CD2F1 mice, survival T/C
Experiment: NCI In Vivo Anticancer Drug Screen. Data for tumor model P388 Leukemia (intraperitoneal) in CD2F1 (CDF1) mice
Details: endpoint: median survival time, higher = longer survival
In short: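 Mice carrying the transplanted tumor received test compound or vehicle. Survival was recorded in each group, and the value is the treated-group measurement divided by that of the vehicle-treated control group.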

[1] = dose: 25.0 mg/kg/injection, schedule: Q01DX009 (ip), vehicle: saline with Tween-80
[2] = dose: 50.0 mg/kg/injection, schedule: Q01DX009 (ip), vehicle: saline with Tween-80
[3] = dose: 100.0 mg/kg/injection, schedule: Q01DX009 (ip), vehicle: saline with Tween-80
[4] = dose: 200.0 mg/kg/injection, schedule: Q01DX009 (ip), vehicle: saline with Tween-80
[5] = dose: 50.0 mg/kg/injection, schedule: Q04DX003 (ip), vehicle: saline with Tween-80
[6] = dose: 100.0 mg/kg/injection, schedule: Q04DX003 (ip), vehicle: saline with Tween-80
[7] = dose: 200.0 mg/kg/injection, schedule: Q04DX003 (ip), vehicle: saline with Tween-80
[8] = dose: 12.5 mg/kg/injection, schedule: Q01DX005 (ip), vehicle: Klucel (hydroxypropylcellulose) (HPC)
[9] = dose: 25.0 mg/kg/injection, schedule: Q01DX005 (ip), vehicle: Klucel (hydroxypropylcellulose) (HPC)
[10] = dose: 50.0 mg/kg/injection, schedule: Q01DX005 (ip), vehicle: Klucel (hydroxypropylcellulose) (HPC)
[11] = dose: 100.0 mg/kg/injection, schedule: Q01DX005 (ip), vehicle: Klucel (hydroxypropylcellulose) (HPC)
[12] = dose: 200.0 mg/kg/injection, schedule: Q01DX005 (ip), vehicle: Klucel (hydroxypropylcellulose) (HPC)
[13] = dose: 6.25 mg/kg/injection, schedule: Q01DX009 (ip), vehicle: saline with Tween-80
[14] = dose: 12.5 mg/kg/injection, schedule: Q01DX009 (ip), vehicle: saline with Tween-80
[15] = dose: 50.0 mg/kg/injection, schedule: Q01DX009 (ip), vehicle: Klucel (hydroxypropylcellulose) (HPC)
[16] = dose: 100.0 mg/kg/injection, schedule: Q01DX009 (ip), vehicle: Klucel (hydroxypropylcellulose) (HPC)
[17] = dose: 200.0 mg/kg/injection, schedule: Q01DX009 (ip), vehicle: Klucel (hydroxypropylcellulose) (HPC)

Measured: T/C

O=S1C2CCC(Cl)C1CCC2Cl (configuration not stated)
inactive: dose: 0.78 mg/kg/injection, schedule: Q01DX009 (ip), vehicle: Klucel (hydroxypropylcellulose) (HPC) 112 % of control | dose: 1.56 mg/kg/injection, schedule: Q01DX009 (ip), vehicle: Klucel (hydroxypropylcellulose) (HPC) 90 % of control

Cc1noc(C)c1C1(Br)C(Br)CCCC1Br (configuration not stated)
inactive: dose: 100.0 mg/kg/injection, schedule: Q04DX002 (ip), vehicle: saline with Tween-80 105 % of control | dose: 200.0 mg/kg/injection, schedule: Q04DX002 (ip), vehicle: saline with Tween-80 104 % of control | dose: 400.0 mg/kg/injection, schedule: Q04DX002 (ip), vehicle: saline with Tween-80 114 % of control

CCC1C(=O)NC(=O)C1(C)c1ccccc1 (configuration not stated)
inactive: [1] 100 % of control and 102 % of control | [2] 100 % of control and 105 % of control | [3] 102 % of control and 103 % of control | [4] 102 % of control and 111 % of control

COC(=O)c1ccc(C)cc1C(=O)OC
inactive: [5] 100 % of control | [6] 100 % of control | [7] 104 % of control

CCNc1nc(NC(C)C)nc(-c2ccncc2)n1
inactive: [8] 108 % of control | [9] 96 % of control | [10] 101 % of control | [11] 108 % of control

CC(=O)C1=C(O)/C(=C\SCc2ccccc2)NC1=O
inactive: dose: 8.75 mg/kg/injection, schedule: Q01DX005 (ip), vehicle: Klucel (hydroxypropylcellulose) (HPC) 105 % of control | dose: 17.5 mg/kg/injection, schedule: Q01DX005 (ip), vehicle: Klucel (hydroxypropylcellulose) (HPC) 104 % of control | dose: 35.0 mg/kg/injection, schedule: Q01DX005 (ip), vehicle: Klucel (hydroxypropylcellulose) (HPC) 101 % of control

CCN(CC)CC1(CC(=O)N2c3ccccc3Sc3ccccc32)COC1
inactive: dose: 50.0 mg/kg/injection, schedule: Q01DX009 (ip), vehicle: saline 107 % of control | dose: 100.0 mg/kg/injection, schedule: Q01DX009 (ip), vehicle: saline 100 % of control | dose: 200.0 mg/kg/injection, schedule: Q01DX009 (ip), vehicle: saline 105 % of control

Cn1c(Br)c(Br)c(=O)n(C)c1=O
inactive: [10] 99 % of control | [11] 100 % of control | [12] 100 % of control

CC1C/C(=C2/NC3CCCCC3NC2=O)C(=O)O1 (configuration not stated)
inactive: [13] 100 % of control | [14] 95 % of control | [1] 92 % of control

c1ccc2c(c1)cnc1ccccc12
inactive: [10] 97 % of control | [11] 104 % of control | [12] 104 % of control

O=C(c1ccccc1)C(c1ccccc1)n1nccc1-c1ccccc1 (configuration not stated)
inactive: [15] 105 % of control | [16] 105 % of control | [17] 99 % of control

CNCCCCCc1cc(-c2ccc([N+](=O)[O-])cc2)on1
inactive: [6] 95 % of control | [7] 100 % of control

CCCn1c(C)nc2c(cnn2C)c1=O
inactive: [10] 101 % of control | [11] 104 % of control | [12] 111 % of control

Nc1ccc(CCCCc2ccc(Cl)c(S(=O)(=O)F)c2)c(Cl)c1
inactive: [3] 91 % of control | [4] 91 % of control

COCc1c(-c2ccccc2)nn(O)c1-c1ccccc1
inactive: dose: 50.0 mg/kg/injection, schedule: Q01DX001 (ip), vehicle: saline with Tween-80 103 % of control | dose: 100.0 mg/kg/injection, schedule: Q01DX001 (ip), vehicle: saline with Tween-80 96 % of control | dose: 200.0 mg/kg/injection, schedule: Q01DX001 (ip), vehicle: saline with Tween-80 87 % of control

O=C(Nc1ccc(NC(=O)C(Cl)(Cl)Cl)cc1)C(Cl)(Cl)Cl
inactive: [1] 105 % of control | [2] 91 % of control | [3] 92 % of control | [4] 99 % of control

COc1cc(/C(C)=C\CP(=O)(c2ccccc2)c2ccccc2)c(C(=O)O)cc1C
inactive: dose: 50.0 mg/kg/injection, schedule: Q01DX005 (ip), vehicle: saline with Tween-80 106 % of control | dose: 100.0 mg/kg/injection, schedule: Q01DX005 (ip), vehicle: saline with Tween-80 106 % of control | dose: 200.0 mg/kg/injection, schedule: Q01DX005 (ip), vehicle: saline with Tween-80 103 % of control

CCOC(=O)NC(C)(C)CN(C(=O)OCC)C(C)(C)CO
inactive: dose: 50.0 mg/kg/injection, schedule: Q04DX003 (ip), vehicle: saline 100 % of control | dose: 100.0 mg/kg/injection, schedule: Q04DX003 (ip), vehicle: saline 109 % of control | dose: 200.0 mg/kg/injection, schedule: Q04DX003 (ip), vehicle: saline 109 % of control

COC(=O)c1nn(-c2ccccc2)c2c1C(=O)c1ccccc1C2=O
inactive: [10] 97 % of control | [11] 92 % of control | [12] 98 % of control

O=C1OC2C(I)C3CC1C2C3 (configuration not stated)
inactive: [1] 100 % of control | dose: 25.0 mg/kg/injection, schedule: Q04DX003 (ip), vehicle: saline with Tween-80 104 % of control | [2] 110 % of control | [5] 104 % of control

Oc1ccc(C2(c3ccc(O)c(Cl)c3)CC3CCC2C3)cc1Cl (configuration not stated)
inactive: dose: 0.79 mg/kg/injection, schedule: Q01DX009 (ip), vehicle: saline with Tween-80 103 % of control and 111 % of control | dose: 1.56 mg/kg/injection, schedule: Q01DX009 (ip), vehicle: saline with Tween-80 103 % of control and 116 % of control | dose: 3.12 mg/kg/injection, schedule: Q01DX009 (ip), vehicle: saline with Tween-80 103 % of control and 105 % of control | [13] 111 % of control and 94 % of control | [14] 97 % of control | [1] 98 % of control

O=C(O)CSCC(=O)Nc1cc(C(F)(F)F)cc(C(F)(F)F)c1
inactive: dose: 60.0 mg/kg/injection, schedule: Q01DX005 (ip), vehicle: Klucel (hydroxypropylcellulose) (HPC) 95 % of control | dose: 120.0 mg/kg/injection, schedule: Q01DX005 (ip), vehicle: Klucel (hydroxypropylcellulose) (HPC) 98 % of control | dose: 240.0 mg/kg/injection, schedule: Q01DX005 (ip), vehicle: Klucel (hydroxypropylcellulose) (HPC) 113 % of control

COc1cccc2c1C(=O)C=C(c1ccccc1)S2(=O)=O
inactive: [10] 111 % of control | [11] 111 % of control

CCCCCCCCOC(=O)c1ccc(I)cc1
inactive: [2] 97 % of control | [3] 101 % of control | [4] 97 % of control

CCOC(=O)C(C#N)C1(c2ccccc2)CCCCC1 (configuration not stated)
inactive: [2] 112 % of control | [3] 101 % of control | [4] 101 % of control

Cc1c[nH]c(=O)cn1
inactive: dose: 100.0 mg/kg/injection, schedule: Q04DX003 (ip), vehicle: Klucel (hydroxypropylcellulose) (HPC) 95 % of control | dose: 200.0 mg/kg/injection, schedule: Q04DX003 (ip), vehicle: Klucel (hydroxypropylcellulose) (HPC) 90 % of control | dose: 400.0 mg/kg/injection, schedule: Q04DX003 (ip), vehicle: Klucel (hydroxypropylcellulose) (HPC) 95 % of control

CCCCCCCN(CCCCCCC)C(=N)c1ccnc2ccccc12
inactive: dose: 6.25 mg/kg/injection, schedule: Q01DX005 (ip), vehicle: Klucel (hydroxypropylcellulose) (HPC) 101 % of control | [8] 99 % of control | [9] 100 % of control

O=C1N/C(=N/OF)C(F)C(NO)N1 (configuration not stated)
inactive: [15] 103 % of control | [16] 103 % of control | [17] 101 % of control

Cc1ccc(S(=O)(=O)OC2CC(C(=O)O)N(S(=O)(=O)c3ccc(C)cc3)C2)cc1 (configuration not stated)
inactive: [6] 100 % of control | [7] 95 % of control | dose: 400.0 mg/kg/injection, schedule: Q04DX003 (ip), vehicle: saline with Tween-80 95 % of control

NC(=O)N1C(=O)C=CC1=O
inactive: [10] 92 % of control | [11] 104 % of control
